Measurements reported in patent US5543410A, “Pharmacological use of phthaloylhydrazide derivatives; combination and application thereof” (L.I.M.A.D. Limited, priority 1993, dated 1996).
Like-named read-outs stand apart in the source and are kept apart here.

How the values were obtained:
anal fissures = system: anal fissures
Description: (§1) Similarly, anal fissures have represented a difficult problem for modern medicine to resolve. In this instance, the inflammatory component is associated with a morphological defect.
The drug was administered to this group of patients in the form of suppositories, in doses of 100 mg every twelve hours, during a five-day period.

pregnant female rats = conditions: 60 mg/kg single dose, intraperitoneal
[1] = system: cancer affecting the left breast, metastatic tumors
psoriasis = conditions: 2 to 5 mg/kg
[2] = pharmacokinetics, plasma half-life; assay type: in vivo
[3] = system: TA 100, TA 102, and TA 97 S. typhi strains; experiment: Ames' bacterial mutagenicity test; conditions: 0.01 mg/ml to 2 mg/ml, rat liver microsome activation
skin diseases = conditions: 1 to 2 percent solution, two or three days
[4] = system: tumor necrosis factor (TNF)
viral hepatitis B = system: viral hepatitis B
Description: Rectal suppositories containing the drug, which was to be administered in doses of 100 mg per day for ten days, were prescribed for this patient.

[5] = system: Salmonella typhinurium endotoxin
male rats = conditions: rat, in vivo
macrophages = conditions: in vitro and in vivo; SV-40 affected cancer cells, glioma cultures
neutrophils = conditions: in vivo (whole blood), NST test
[6] = system: suppuration and abscesses affecting the jaw; conditions: one day after
[7] = system: non-specific ulcerative colitis and Crohn's disease
Description: These patients complained of periodic worsening of their symptoms over periods of three to five years.
100 mg per day of the drug was administered intravenously to these patients for three days.
On subsequent days, intramuscular administration of the drug was provided once daily, along with a 100 mg rectal suppository.

[8] = system: piglets affected by dysentery; experiment: dysentery in piglets; assay type: in vivo
Description: Experiments were performed with piglets weighing from 30 to 40 kgs, which were affected by dysentery.
Nevertheless, symptoms reappeared six to seven hours later in one group of animals. This factor rendered repeated administration of the drug necessary.

erysipelas = experiment: erysipelas
[9] = system: acute intestinal infections
[10] = system: abortion induced by Salmonella typhinurium endotoxin; conditions: 15 mg/kg; abortions in eighty percent without drug
hemorrhoids = system: hemorrhoids
Excerpt: as §1
The drug was used in the form of suppositories in 0.1 g doses once daily, in order to treat acute hemorrhoids in patients whose ages were from twenty to sixty years.

male mice = conditions: 30 and 60 mg/kg
[11] = passage through living membranes / microbial membranes
[12] = after five to six days of treatment
[13] = 100 mg per day rectal suppositories
[14] = 15 mg/kg intravenous, when clinical manifestations appeared
[15] = 1 percent ointment plus 100 mg suppositories

## Nc1cccc2c(=O)[nH][nH]c(=O)c12
Anal fissures; 100 mg suppositories every twelve hours
  time until pain ceased: twenty to thirty
Anal fissures; [12]
  recurrences: Recurrences were not observed
  regeneration of the mucosae: regeneration of the mucosae was visually observable
Anal fissures; after the third suppository
  defecation and sphincter spasms: defecation became painless, and spasms affecting the sphincter diminished
Anal fissures; by the fifth day
  recovery: the patients had practically recovered
Anal fissures; rectal administration
  other symptoms: other symptoms were also eliminated by the end of the first day of treatment
  time to significant alleviation of the pain syndrome: twenty to forty
Pregnant female rats
  fetal abnormalities: No fetal abnormalities were found
[1]; after first injection, 100 mg intramuscular every two days
  intensity of pain: the intensity of their pain decreased significantly
[1]; alternate days intramuscular
  general condition: a steady improvement in the patient's general condition was observed
[1]; in vivo
  urine, urination, perspiration: their urine became more dense, frequent urination began, and their perspiration acquired a rather foul odor
  vomiting, stools: vomiting began, and the patient's stools were malodorous
[1]; thirteenth and fourteenth days
  edema: had diminished significantly
[1]; twentieth day
  condition and appetite: the patient's condition improved, and their appetite was restored
psoriasis
  development of psoriasis: did not substantially influence the development of psoriasis
[2]; in vivo
  duration of activity in hydrophobic phase of living membranes: remains active for several hours
[2]; intramuscular and rectal
  half-life: forty to sixty
[2]; intravenous
  half-life within blood plasma: five to fifteen
Guinea pigs; even large doses
  erythema at the site of administration: Erythema was not encountered
Guinea pigs; subcutaneous or oral administration
  indications of allergies: no indications of allergies were observed
[3]
  inhibitory or mutagenic activity: did not possess inhibitory or mutagenic activity
Skin diseases
  elimination of symptoms: sufficient to eliminate symptoms of various diseases
proctosigmoiditis; [13]
  time until symptoms and pain disappeared: one
proctosigmoiditis; by the seventh day
  complaints: the patients no longer complained of symptoms
proctosigmoiditis; checkups
  rectosigmoidoscopy finding: renewal of normal conditions was observed within the rectal mucosae and within the sigmoid colon
[4]
  action of TNF in mutated cells: intensifies the action of the tumor necrosis factor (TNF) in mutated cells
Viral hepatitis B; [13]
  time to improvement (lethargy, pain disappeared): third
  time to normal biochemical blood data: tenth
Viral hepatitis B; six subsequent months
  chronic development of the process: absence of chronic development of the process
Viral hepatitis B; tenth day
  bile pigments reaction: negative
  ultrasound examination of liver: No pathological conditions affecting the liver were observed
Viral hepatitis B; volunteers, 2 to 5 mg/kg per day, initial phase of chronic stage
  symptoms and hepatic functions: symptoms were eliminated and previously impaired hepatic functions were restored
[5]; [14]
  diarrhea: diarrhea ceased completely
  time to reduction of intoxication symptoms: five to ten
[5]; 25 mg/kg
  alleviation of intoxication symptoms and diarrhea: complete alleviation of intoxication symptoms and diarrhea
[5]; 15 to 25 mg/kg
  intoxication symptoms (conclusion): prevent or eliminate intoxication symptoms
[5]; drug five minutes after endotoxin, third series
  alleviation of symptoms: partial alleviation of symptoms
Male rats
  average fluctuations in blood pressure levels in comparison with initial levels: 2.79±0.72
  time to return of blood pressure to initial level: thirty
Male rats; iv
  rise in blood pressure in relation to the initial level: 1.57±5.93%
macrophages
  transformation of macrophages into killer cells: transformation of a certain portion of macrophages into killer cells
neutrophils
  rate at which superoxide radicals formed: an increase in the rate at which superoxide radicals formed
[6]; 1 mg/kg
  therapeutic effect: no therapeutic effect had occurred
[6]; 2 mg/kg
  patients with therapeutic effect: four
[6]; 4 mg/kg, each of the six patients
  patients with therapeutic effect: six
[7]; 100 mg per day intravenous
  time until abdominal and joint pain lessened: Thirty
[7]; first three days
  frequency of defecation: frequency of defecation was reduced
[7]; fourteenth day
  frequency of defecation: once or twice
[7]; in vivo
  rectosigmoidoscopy finding: did not reveal the presence of pus or blood, although traces of an inflammatory process were observed within mucous membranes
[7]; sixth day
  frequency of defecation: two or three
  pain and skin eruptions: They were no longer experiencing pain, their skin eruptions had disappeared
[8]; 50 mg/kg, fourth series
  effectiveness in alleviating diarrhea: limited effectiveness in alleviating diarrhea
[8]; 10, 25, and 50 mg/kg, third series
  therapeutic effect: relatively insignificant
[8]; 20 and 50 mg/kg, second series
  reappearance of dysentery symptoms: symptoms of dysentery reappeared at the end of the first day
[8]; 20 and 50 mg/kg, sixteen animals, second series
  instances with therapeutic effects: six
erysipelas; [15]
  time until congestion and edema had diminished: twenty-four
  time until pain became less intense: five to six
erysipelas; by the end of the sixth day
  difficulties: the patient no longer cited difficulties
[9]; 200 mg in isotonic aqueous solution
  time to improvement, decrease in abdominal pain, cessation of diarrhea: Forty to fifty
[9]; in vivo
  fecal cultures for bacillary dysentery and Salmonella: negative
[9]; one day after admission
  symptoms of intoxication: all of the symptoms of intoxication had disappeared
[10]
  abortion prevented: seven
Malignant tumors; increasing doses and frequency
  expansion of malignant tumors: ensures inhibition of the expansion of malignant tumors
Malignant tumors; three patients
  tumor dimensions and general condition: favorable results represented by reduction of the dimensions of tumors and by an improvement in their general condition
Malignant tumors; total dose of 60 to 90 g
  effect in combination with radiation therapy: the effect upon its action is intensified
hemorrhoids; 0.1 g once daily
  recovery: The patients recovered fully
  time until inflammatory process and enlargement of hemorrhoidal nodes disappeared: fifth
hemorrhoids; 0.1 g suppositories once daily
  time until anal pain ceased: Seventeen to thirty
hemorrhoids; rectal administration
  time to alleviation of pain syndrome: thirty
hemorrhoids; twelve hours
  inflammatory process and edema: significant shrinkage of the inflammatory process and reduction of edema in hemorrhoidal nodes
Male mice
  threshold for sensitivity to pain: did not alter the threshold for sensitivity to pain
Male mice; intraabdominal
  natural orientation reflex: did not suppress the natural orientation reflex
Male mice; pivot pin method
  muscle tone: did not cause changes in muscle tone
[11]
  passage through the hydrophobic phase of living membranes: easily passing through the hydrophobic phase of living membranes
Anhydrous conditions
  storage period (stable): > 1 year
Aqueous solution
  expiration period: > ten to twenty
